Measured values as given in patent US20130165426A1, “IMIDAZOPYRIDINE, IMIDAZOPYRIMIDINE AND IMIDAZOPYRAZINE DERIVATIVES AS MELANOCORTIN-4 RECEPTOR MODULATORS” (UNIVERSITÉ DE MONTRÉAL, priority 2010, published 2013).

These molecules were tested against T1, wild-type human melanocortin 4 receptor (WT-hMC4R) (Homo sapiens, UniProt P32245) (assay: Cyclic AMP assay (HTRF), antagonist competition against NDP-α-MSH). Settings: HEK293T cells stably expressing WT-hMC4R; inhibition of response to 4 nM NDP-α-MSH; cAMP.
T1 construct: expressed in transfected cells
T1 sequence (P32245 whole entry): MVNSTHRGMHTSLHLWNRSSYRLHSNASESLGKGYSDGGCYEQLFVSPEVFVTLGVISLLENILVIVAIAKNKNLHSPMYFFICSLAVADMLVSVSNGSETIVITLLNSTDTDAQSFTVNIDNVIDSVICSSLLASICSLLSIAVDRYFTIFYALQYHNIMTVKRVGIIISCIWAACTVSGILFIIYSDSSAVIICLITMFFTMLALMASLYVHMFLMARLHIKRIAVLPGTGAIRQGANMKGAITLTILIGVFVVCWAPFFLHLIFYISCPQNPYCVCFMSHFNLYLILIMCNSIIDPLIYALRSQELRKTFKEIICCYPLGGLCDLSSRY
Format: cell-based
Procedure: The general procedures described above were used to prepare the examples described below. Reported HPLC retention time are for reverse-phase HPLC (Agilent, 1200 series) using the conditions reported above (See “General” section). Mass spectra were recorded on a 6210 G1969A LC/MSD TOF spectrometer from Agilent Technologies using the LC conditions reported above (See “General” section). IC50 values were obtained using the cAMP assay described below.
IC50 value is the half maximal concentration of the tested compound to inhibit half of the maximal response of the agonist NDP-α-MSH. It is a measurement of the antagonist compound potency.
Intracellular cyclic 3′-5′ adenosine monophosphate (cAMP) accumulation was measured using a competitive immunoassay based on HTRF (Homogeneous Time-Resolved Fluorescence) technology (cAMP dynamic-2, Cis-Bio).
HEK293T stable cell line expressing double-tagged WT-hMC4R construct were collected and washed in cAMP buffer (1×D-PBS pH 7.4, 0.1% glucose). 40,000 cells/well were then dispensed in 96-well plates in cAMP buffer [1×D-PBS, 1% BSA, 0.1% Glucose, 0.75 mM 3-isobutyl-1-methyl-xanthine (IBMX, Sigma)] and incubated either for antagonist competition assay: 1 hour at 37° C. with various concentrations of compound [0.01 nM-10 μM] followed by 30 min incubation at 37° C. with 4 nM of NDP-α-MSH (Sigma) or for agonist assay: 1 hour at 37° C. with various concentrations of compound [0.01 nM-10 μM]. 10,000 cells were transferred in 384-well plates, lysed and incubated with cAMP labeled with the dye d2 and anti-cAMP M-Antidody labeled with Cryptate following the manufacturer's protocol.
Reading of HTRF signal was performed on Artemis TR-FRET plate reader (Cosmo Bio).
All curve fitting was conducted using non-linear regression analyses from PRISM (version 4.0c, GraphPad Inc.) and the determination of Rmax and EC50 or IC50 parameters were obtained from sigmoidal dose-response phase (variable slope) equation.
A cDNA encoding a wild-type human MC4R with a 3 tandem copies of Hemaglutinine (HA) epitote sequence from UMR cDNA resource center was modified using known techniques in the art (e.g., PCR, cloning) to fused in frame at the C-terminal a venus-Yellow Fluorescent Protein (YFP) cDNA.
The resultant cDNA was then subcloned in eukaryotic expression vector, e.g. pcDNA 3.1(+) (Invitrogen).
The double tagged WT-hMC4R was transfected in HEK293T cells with lipofectamine (Invitrogen) following the manufacturer's instructions and permanently transfected clonal cell lines were selected by resistance to the neomycin analog G418.
HEK293T stable cell line expressing wild-type human melanocortin 4 receptor (WT-hMC4R) containing an N-terminal 3×HA epitope tag and an intracellular C-terminal venus-yellow fluorescent protein (v-YFP) were maintained at 37° C. in humidified air containing 5% CO2 in Dulbecoo's modified Eagle's medium (DMEM) supplemented with 10% fetal bovine serum (FBS), 100 U/ml penicillin/streptomycin (DMEM complete/10% FBS). Cells were generally at 70%-80% confluence on the day of assay.

| IC50 | SMILES |
| --- | --- |
| 100 to 1000 nM | CCCCN(CCCC)C(=O)c1cc2c(cn1)nc(Nc1ccc(OC)cc1)n2CCCN1CCCCC1 [Cpd 31] |
| 1000 to 15000 nM | CCCCN(CCCC)C(=O)c1ccc2nc(SCC)n(CCCN3CCCCC3)c2n1 [Cpd 61] |
| 1000 to 15000 nM | CCCCN(CCCC)C(=O)c1ccc2nc(NC(=O)c3ccccc3)n(CCCN3CCCCC3)c2n1 [Cpd 9] |
| 1000 to 15000 nM | COc1ccc(-c2nc3ccc(C(=O)N(CCC(C)C)CCC(C)C)nc3n2CCCN2CCOCC2)cc1 [Cpd 77] |
| < 100 nM | CCCCN(CCCC)C(=O)c1ccc2nc(Nc3ccc(C(=O)OC)cc3)n(CCCN3CCCCC3)c2n1 [Cpd 48] |
| 100 to 1000 nM | CCCCN(CCCC)C(=O)c1ccc2nc(Nc3ccc(C(=O)N4CCCCC4)cc3)n(CCCN3CCCCC3)c2n1 [Cpd 57] |
| 100 to 1000 nM | COc1ccc(Nc2nc3ccc(C(=O)N(CCC(C)C)CCC(C)C)nc3n2CCCN2CCOCC2)cc1 [Cpd 74] |
| 100 to 1000 nM | CCCCN(CCCC)C(=O)c1ccc2nc(Nc3ccc(C(=O)N(C)C)cc3)n(CCCN3CCCCC3)c2n1 [Cpd 56] |
| < 100 nM | CCCCN(CCCC)C(=O)c1cc2c(cn1)nc(NCc1ccccc1)n2CCCN1CCCCC1 [Cpd 52] |
| 100 to 1000 nM | CC(C)CCN(CCC(C)C)C(=O)c1ccc2nc(-c3ccc4c(c3)OCO4)n(CCCN3CCCCC3)c2n1 [Cpd 73] |
| < 100 nM | CCCCN(CCCC)C(=O)c1ccc2nc(Nc3ccc(C(C)=O)cc3)n(CCCN3CCCCC3)c2n1 [Cpd 32] |
| 100 to 1000 nM | CC(C)CCN(CCC(C)C)C(=O)c1ccc2nc(Nc3cccnc3)n(CCCN3CCOCC3)c2n1 [Cpd 75] |
| 1000 to 15000 nM | C=C(C)CNc1nc2ccc(C(=O)N(CCCC)CCCC)nc2n1CCCN1CCCCC1 [Cpd 41] |
| 1000 to 15000 nM | CCCCN(CCCC)C(=O)c1ccc2nc(C)n(CCCN3CCCCC3)c2n1 [Cpd 3, N,N-dibutyl-2-methyl-3-(3-(piperidin-1-yl)propyl)-3H-imidazo[4,5-b]pyridine-5-carboxamide] |
| < 100 nM | CCCCN(CCCC)C(=O)c1ccc2nc(Nc3ccc(OC)cc3)n(CCCN3CCCCC3C)c2n1 (stereo not drawn) [Cpd 18] |
| < 100 nM | CC(C)CCN(CCC(C)C)C(=O)c1ccc2nc(Nc3ccc(C(C)(C)O)cc3)n(CCCN3CCCCC3)c2n1 [Cpd 70] |
| 1000 to 15000 nM | CCCCN(CCCC)C(=O)c1ccc2nc(Nc3ccccc3Br)n(CCCN3CCCCC3)c2n1 [Cpd 11] |
| 100 to 1000 nM | CCCCN(CCCC)C(=O)c1cc2c(cn1)nc(Oc1ccc(OC)cc1)n2CCCN1CCCCC1 [Cpd 66] |
| 100 to 1000 nM | CCCCN(CCCC)C(=O)c1ccc2nc(-c3csc4ccccc34)n(CCCN3CCCCC3)c2n1 [Cpd 5, 2-(benzo[b]thiophen-3-yl)-N,N-dibutyl-3-(3-(piperidin-1-yl)propyl)-3H-imidazo[4,5-b]pyridine-5-carboxamide] |
| 1000 to 15000 nM | CC(=O)N1CCC(c2nc3ccc(C(=O)N(CCC(C)C)CCC(C)C)nc3n2CCCN2CCOCC2)CC1 [Cpd 78] |
| 1000 to 15000 nM | CCC1CCC(C)N(C(=O)c2ccc3nc(Nc4ccc(OC)cc4)n(CCCN4CCCCC4)c3n2)C1 (stereo not drawn) [Cpd 22] |
| < 100 nM | COc1ccc(Nc2nc3ccc(C(=O)N(CCC(C)C)CCC(C)C)nc3n2CCCN2CCCCC2)cc1 [Cpd 16] |
| 1000 to 15000 nM | COc1ccc(Nc2nc3ccc(-c4cc5ccccc5n4C(=O)OC(C)(C)C)nc3n2CCCN2CCCCC2)cc1 [Cpd 6, tert-butyl 2-(2-((4-methoxyphenyl)amino)-3-(3-(piperidin-1-yl)propyl)-3H-imidazo[4,5-b]pyridin-5-yl)-1H-indole-1-carboxylate] |
| < 100 nM | CCCCN(CCCC)C(=O)c1ccc2nc(Nc3ccc(C)cc3)n(CCCN3CCCCC3)c2n1 [Cpd 46] |
| 100 to 1000 nM | COc1ccc(-c2nc3ccc(C(=O)N(CCC(C)C)CCC(C)C)nc3n2CCCN2CCCCC2)cc1 [Cpd 72] |
| 100 to 1000 nM | CCCCN(CCCC)C(=O)c1ccc2nc(Nc3ccc(C(=O)N4CCOCC4)cc3)n(CCCN3CCCCC3)c2n1 [Cpd 59] |
| < 100 nM | COC(=O)c1ccc(Nc2nc3ccc(C(=O)N(CCC(C)C)CCC(C)C)nc3n2CCCN2CCCCC2)cc1 [Cpd 71] |

| IC50 | SMILES |
| --- | --- |
| 1000 to 15000 nM | CCCCN(CCCC)C(=O)c1ccc2nc(Nc3ccc(C(=O)O)cc3)n(CCCN3CCCCC3)c2n1 [Cpd 67] |
| 100 to 1000 nM | CCCN(CCC)C(=O)c1ccc2nc(Nc3ccc(OC)cc3)n(CCCN3CCCCC3)c2n1 [Cpd 13] |
| 100 to 1000 nM | COc1ccc(-c2nc3cnc(C(=O)N(CCC(C)C)CCC(C)C)cc3n2CCCN2CCCCC2)cc1 [Cpd 63] |
| 100 to 1000 nM | CCCCN(CCCC)C(=O)c1ccc2nc(NCc3ccccc3)n(CCCN3CCCCC3)c2n1 [Cpd 10] |
| 100 to 1000 nM | CCCCN(CCCC)C(=O)c1cc2c(cn1)nc(Nc1ccc(C)cc1)n2CCCN1CCCCC1 [Cpd 53] |
| 100 to 1000 nM | CCCCN(CCCC)C(=O)c1ccc2nc(Nc3ccc(CC)cc3)n(CCCN3CCCCC3)c2n1 [Cpd 33] |
| 100 to 1000 nM | CCCCN(CCCC)C(=O)c1nc(O)c2nc(-c3ccc(OC)cc3)n(CCCN3CCCCC3)c2n1 [Cpd 47] |
| < 100 nM | CCCCN(CCCC)C(=O)c1ccc2nc(Nc3ccc(OC)cc3)n(CCCN3CCCCC3)c2n1 [Cpd 1] |
| < 100 nM | COc1ccc(Nc2nc3ccc(C(=O)N(CCC4CC4)CCC4CC4)nc3n2CCCN2CCCCC2)cc1 [Cpd 30] |
| 100 to 1000 nM | CCCCN(CCCC)C(=O)c1ccc2nc(NC3CCCCC3)n(CCCN3CCCCC3)c2n1 [Cpd 49] |
| < 100 nM | CC(C)CCN(CCC(C)C)C(=O)c1cc2c(cn1)nc(-c1cc3ccccc3s1)n2CCCN1CCCCC1 [Cpd 65] |
| < 100 nM | CC(=O)c1ccc(Nc2nc3ccc(C(=O)N(CCC(C)C)CCC(C)C)nc3n2CCCN2CCCCC2)cc1 [Cpd 68] |
| 100 to 1000 nM | CCCCN(CCCC)C(=O)c1cnc2nc(Nc3ccc(OC)cc3)n(CCCN3CCCCC3)c2n1 [Cpd 50] |
| 1000 to 15000 nM | CCN(CCOC)C(=O)c1ccc2nc(Nc3ccc(OC)cc3)n(CCCN3CCCCC3)c2n1 [Cpd 7] |
| 1000 to 15000 nM | COc1ccc(Br)cc1-c1nc2cnc(C(=O)N(CCC(C)C)CCC(C)C)cc2n1CCCN1CCCCC1 [Cpd 64] |
| 1000 to 15000 nM | CCCCN(CCCC)C(=O)c1ccc2nc(NC(=O)OCC)n(CCCN3CCCCC3)c2n1 [Cpd 39] |
| 1000 to 15000 nM | COCCN(CCOC)C(=O)c1ccc2nc(Nc3ccc(OC)cc3)n(CCCN3CCCCC3)c2n1 [Cpd 17] |
| 1000 to 15000 nM | CCCCN(CCCC)C(=O)c1ccc2nc(-c3ccc(Br)cc3)n(CCCN3CCCCC3)c2n1 [Cpd 43] |
| 100 to 1000 nM | CCCCN(CCC)C(=O)c1ccc2nc(Nc3ccc(OC)cc3)n(CCCN3CCCCC3)c2n1 [Cpd 24] |
| 100 to 1000 nM | CCCCN(CCCC)C(=O)c1ccc2nc(Nc3cccc4ccccc34)n(CCCN3CCCCC3)c2n1 [Cpd 45] |
| 1000 to 15000 nM | CCCCN(CCCC)C(=O)c1ccc2nc(Nc3ccc(OC)cc3)n(C3CCN(Cc4ccccc4)CC3)c2n1 [Cpd 26] |
| 100 to 1000 nM | COc1ccc(Nc2nc3ccc(C(=O)N(CC(C)C)CC(C)C)nc3n2CCCN2CCCCC2)cc1 [Cpd 12] |
| 1000 to 15000 nM | CCCCN(CCCC)C(=O)c1ccc2nc(NC(C)C)n(CCCN3CCCCC3)c2n1 [Cpd 34] |
| < 100 nM | CCCCCN(CCCCC)C(=O)c1ccc2nc(Nc3ccc(OC)cc3)n(CCCN3CCCCC3)c2n1 [Cpd 14] |
| 1000 to 15000 nM | CCCCN(CCCC)C(=O)c1ccc2nc(-c3cc(F)ccc3Br)n(CCCN3CCCCC3)c2n1 [Cpd 42] |
| < 100 nM | CCCCCN(CCCCC)C(=O)c1cc2c(cn1)nc(Nc1ccc(OC)cc1)n2CCCN1CCCCC1 [Cpd 36] |

| SMILES | IC50 |
| --- | --- |
| COc1ccc(Nc2nc3ccc(C(=O)N4CC5CCC(CC5)C4)nc3n2CCCN2CCCCC2)cc1 [Cpd 19] | 1000 to 15000 nM |
